{
  "source": "patent US6603023B2",
  "about": "(priority 1996, dated 2003)",
  "key": {"[1]": {"test": "Stability in human plasma (HPLC)", "format": "in vitro ADME", "procedure": "Sample Preparation. To 300 microliters of spiked plasma are added 30 microliters of methanol. The mixture is agitated and allowed to stand for 2 minutes. Then 600 microliters of methanol are added. The mixture is centrifuged. The supernatant is removed for analysis by HPLC. Analyses were performed under the following chrmotographic conditions: Column: Nova-Pak C18, 15 cm. Eluant: 50% acetonitrile/water with 0.8% triethylamine, 0.2% phosphoric acid. Detection: UV (250 nm)."}, "[2]": {"tested_on": "Human Lymphoblastic Leukemia CCRF-CEM", "test": "CCRF-CEM xenograft in nude mice, i.v. 6 h infusion", "format": "in vivo"}, "CCRF-CEM/VBL": {"tested_on": "CCRF-CEM/VBL", "test": "CCRF-CEM/VBL xenograft in nude mice, i.v. 6 h infusion", "format": "in vivo", "description": "Treatment on days 19, 21, 23, 25, 27, 39, 41, 43, 45, 47 and 53."}, "B16 Melanoma": {"tested_on": "B16 Melanoma", "format": "in vivo, B6D2F1 mice"}, "[3]": {"tested_on": "HT-29 Colon Adenocarcinoma", "test": "HT-29 xenograft", "format": "in vivo, nude mice"}, "[4]": {"tested_on": "human ovarian UL3-C tumor", "test": "UL3-C ovarian tumor xenograft"}, "[5]": {"test": "Hematology and blood chemistry toxicity in MX-1 bearing mice", "conditions": "day 30; dEpoB 25 mg/kg i.p. day 7-15 then 35 mg/kg day 17-25; Taxol 5 then 6 mg/kg; MX-1 bearing nude mice"}, "[6]": {"conditions": "CCRF/CEM Leukemia, dEpoB 30 mg/kg Q2D x 5, Taxol 15 mg/kg Q2D x 5"}, "[7]": {"conditions": "CCRF/VBL Leukemia, dEpoB 30 mg/kg Q2D x 5, Taxol 15 mg/kg Q2D x 5"}, "[8]": {"conditions": "10 mg/kg QD × 8 from day 1, day 5"}, "[9]": {"conditions": "10 mg/kg QD × 8 from day 1, day 7"}, "[10]": {"conditions": "10 mg/kg QD × 8 from day 1, day 9"}, "[11]": {"conditions": "10 mg/kg QD × 8 from day 1, day 11"}, "[12]": {"conditions": "dEpoB 30 mg/kg Q2D x 6, Taxol 15 mg/kg Q2D x 6"}, "[13]": {"conditions": "UL3-C Ovary, dEpoB 30 mg/kg Q2D x 5, Taxol 15 mg/kg Q2D x 5"}, "[14]": {"conditions": "dEpoB 30, Taxol 20 mg/kg, i.v. infusions on day 19,21,23,25,27"}},
  "note": "Read-outs that look alike come from different tables or passages of the source.",
  "data": [
    {"smiles": "C/C1=C/C[C@@H](/C(C)=C/c2csc(C)n2)OC(=O)C[C@H](O)C(C)(C)C(=O)[C@H](C)[C@@H](O)[C@@H](C)CCC1", "note": "[Desoxyepothilone B, desoxyepothilone B]", "values": [
      {"measurement": "half-life in human plasma", "setting": "[1]", "result": "about 75 hours"},
      {"measurement": "Therapeutic effect Rank Order", "setting": "[2]; CCRF-CEM, i.v. infusion", "result": "dEpoB ≈ Taxol ®"},
      {"measurement": "Lowest Average Tumor Size (T/C)", "setting": "[2]; [6]", "result": 0, "unit": "T/C"},
      {"measurement": "Tumor Disappearance", "setting": "[2]; [6]", "result": "2/2"},
      {"measurement": "Therapeutic Effects dEpoB vs Taxol", "setting": "[2]; CCRF/CEM Leukemia, dEpoB 30 mg/kg Q2D x 5 vs Taxol 15 mg/kg Q2D x 5", "result": "≅"},
      {"measurement": "Therapeutic effect Rank Order", "setting": "CCRF-CEM/VBL; CCRF-CEM/VBL, i.v. infusion", "result": "dEpoB >>> Taxol ®"},
      {"measurement": "Lowest Average Tumor Size (T/C)", "setting": "CCRF-CEM/VBL; [7]", "result": 0, "unit": "T/C"},
      {"measurement": "Tumor Disappearance", "setting": "CCRF-CEM/VBL; [7]", "result": "2/2"},
      {"measurement": "Therapeutic Effects dEpoB vs Taxol", "setting": "CCRF-CEM/VBL; CCRF/VBL Leukemia, dEpoB 30 mg/kg Q2D x 5 vs Taxol 15 mg/kg Q2D x 5", "result": ">>>"},
      {"measurement": "# Mice Died", "setting": "B16 Melanoma; 10 mg/kg QD × 8 from day 1", "result": "0/6"},
      {"measurement": "Average weight change", "setting": "B16 Melanoma; 10 mg/kg QD × 8 from day 1, day 3", "result": -0.7, "unit": "g"},
      {"measurement": "Average Tumor Volume (T/C)", "setting": "B16 Melanoma; [8]", "result": 0.23},
      {"measurement": "Average weight change", "setting": "B16 Melanoma; [8]", "result": -0.9, "unit": "g"},
      {"measurement": "Average Tumor Volume (T/C)", "setting": "B16 Melanoma; [9]", "result": 0.22},
      {"measurement": "Average weight change", "setting": "B16 Melanoma; [9]", "result": -1.1, "unit": "g"},
      {"measurement": "Average Tumor Volume (T/C)", "setting": "B16 Melanoma; [10]", "result": 0.51},
      {"measurement": "Average weight change", "setting": "B16 Melanoma; [10]", "result": -1.5, "unit": "g"},
      {"measurement": "Average Tumor Volume (T/C)", "setting": "B16 Melanoma; [11]", "result": 0.28},
      {"measurement": "Average weight change", "setting": "B16 Melanoma; [11]", "result": -0.3, "unit": "g"},
      {"measurement": "mice died", "setting": "B16 Melanoma; 10 mg/kg QDx8 from day 1 (FIG. 44)", "result": "0 of 8"},
      {"measurement": "# Mice Died", "setting": "B16 Melanoma; 20 mg/kg QD1-4,7-8", "result": "0/6"},
      {"measurement": "Average weight change", "setting": "B16 Melanoma; 20 mg/kg QD1-4,7-8, day 3", "result": -1.3, "unit": "g"},
      {"measurement": "Average Tumor Volume (T/C)", "setting": "B16 Melanoma; 20 mg/kg QD1-4,7-8, day 5", "result": 0.59},
      {"measurement": "Average weight change", "setting": "B16 Melanoma; 20 mg/kg QD1-4,7-8, day 5", "result": -2.2, "unit": "g"},
      {"measurement": "Average Tumor Volume (T/C)", "setting": "B16 Melanoma; 20 mg/kg QD1-4,7-8, day 7", "result": 0.63},
      {"measurement": "Average weight change", "setting": "B16 Melanoma; 20 mg/kg QD1-4,7-8, day 7", "result": -1.3, "unit": "g"},
      {"measurement": "Average Tumor Volume (T/C)", "setting": "B16 Melanoma; 20 mg/kg QD1-4,7-8, day 9", "result": 0.58},
      {"measurement": "Average weight change", "setting": "B16 Melanoma; 20 mg/kg QD1-4,7-8, day 9", "result": -1.6, "unit": "g"},
      {"measurement": "Average weight change", "setting": "B16 Melanoma; 20 mg/kg QD1-4,7-8, day 11", "result": -0.8, "unit": "g"},
      {"measurement": "Therapeutic effect Rank Order", "setting": "B16 Melanoma; mouse, in vivo, ip", "result": "dEpoB > Taxol ® >> EpoB"},
      {"measurement": "Lowest Average Tumor Size (T/C)", "setting": "[3]; [12]", "result": 0.02, "unit": "T/C"},
      {"measurement": "Tumor Disappearance", "setting": "[3]; [12]", "result": 0},
      {"measurement": "Therapeutic Effects dEpoB vs Taxol", "setting": "[3]; dEpoB 30 mg/kg Q2D x 6 vs Taxol 15 mg/kg Q2D x 6", "result": "≦"},
      {"measurement": "Therapeutic effect Rank Order", "setting": "[3]; i.v. infusion", "result": "Taxol ® ≧ dEpoB"},
      {"measurement": "Lowest Average Tumor Size (T/C)", "setting": "[4]; [13]", "result": 0.03, "unit": "T/C"},
      {"measurement": "Tumor Disappearance", "setting": "[4]; [13]", "result": 0},
      {"measurement": "Therapeutic Effects dEpoB vs Taxol", "setting": "[4]; UL3-C Ovary, dEpoB 30 mg/kg Q2D x 5 vs Taxol 15 mg/kg Q2D x 5", "result": "≧"},
      {"measurement": "Average Body Weight (change), Day 33", "setting": "[4]; [14]", "result": -2.7, "unit": "g"},
      {"measurement": "Average Body Weight Change, Day 27", "setting": "[4]; [14]", "result": -1.5, "unit": "g"},
      {"measurement": "Average Body Weight Change, Day 29", "setting": "[4]; [14]", "result": -4.0, "unit": "g"},
      {"measurement": "Average Body Weight Change, Day 31", "setting": "[4]; [14]", "result": -3.6, "unit": "g"},
      {"measurement": "Average Tumor Size (T/C), Day 27", "setting": "[4]; [14]", "result": 0.19, "unit": "T/C"},
      {"measurement": "Average Tumor Size (T/C), Day 29", "setting": "[4]; [14]", "result": 0.13, "unit": "T/C"},
      {"measurement": "Average Tumor Size (T/C), Day 31", "setting": "[4]; [14]", "result": 0.03, "unit": "T/C"},
      {"measurement": "Average Tumor Size (T/C), Day 33", "setting": "[4]; [14]", "result": 0.03, "unit": "T/C"},
      {"measurement": "Average Body Weight, Day 19", "setting": "[4]; initial weight, dEpoB 30, Taxol 20 mg/kg, i.v. infusions on day 19,21,23,25,27", "result": 30.0, "unit": "g"},
      {"measurement": "GOT", "setting": "[5]", "result": 296, "unit": "U/L"},
      {"measurement": "GPT", "setting": "[5]", "result": "55 (n = 3) U/L"},
      {"measurement": "WBC Lymph", "setting": "[5]", "result": 48, "unit": "%"},
      {"measurement": "WBC Neutrophils", "setting": "[5]", "result": 48, "unit": "%"},
      {"measurement": "WBC Total", "setting": "[5]", "result": "11.8 10^3/mm^3"}
    ]}
  ]
}
